Data as given in patent publication US6908884B2, “Benzazolonylcarbonylcyclohexenones and their use as herbicides” (BASF Aktiengesellschaft, priority 2000, dated 2005).

Legend:
AMARE = assay: greenhouse post-emergence herbicidal test; assay type: in vivo, redroot pigweed; settings: 125 or 250 g/ha (a.s.)
Description: (§1) The seeds of the test plants were sown separately for each species. For the post-emergence treatment, the test plants were first grown to a plant height of from 3 to 15 cm, depending on the plant habit, and only then treated with the active compounds which had been suspended or emulsified in water. To this end, the test plants were either sown directly and grown in the same containers, or they were first grown separately as seedlings and transplanted into the test containers a few days prior to treatment. The rate of application for the post-emergence treatment was 250, 125, 62.5, 31.3 and/or 15.6 g/ha of active substance (a.s.). Depending on the species, the plants were kept at from 10 to 25° C., or 20-35° C., respectively. The test period extended over 2 to 4 weeks. During this time, the plants were tended, and their response to the individual treatments was evaluated. Evaluation was carried out using a scale of from 0 to 100. 100 means no emergence of the plants, or complete destruction of at least the aerial parts, and 0 means no damage, or normal course of growth. A damage of at least 95% corresponds to very good herbicidal action. The plants used in the greenhouse experiments were of the following species: [table]

MATIN = assay: greenhouse post-emergence herbicidal test; assay type: in vivo, chamomile, false; settings: 125 or 62.5 g/ha (a.s.)
Description: as §1

LAMAM = assay: greenhouse post-emergence herbicidal test; assay type: in vivo, henbit; settings: 125 or 62.5 g/ha (a.s.)
Description: as §1

SINAL = assay: greenhouse post-emergence herbicidal test; assay type: in vivo, white mustard; settings: 125 or 62.5 g/ha (a.s.)
Description: as §1

ABUTH = assay: greenhouse post-emergence herbicidal test; assay type: in vivo, velvet leaf; settings: 125 or 250 g/ha (a.s.)
Description: as §1

PHBPU = assay: greenhouse post-emergence herbicidal test; assay type: in vivo, morning glory, common
Description: as §1, with “The rate of application for the post-emergence treatment was 250, 125, 62.5, 31.3 and/or 15.6 g/ha of active substance (a.s.).” left out

SETFA = assay: greenhouse post-emergence herbicidal test; assay type: in vivo, giant foxtail; settings: 125 or 250 g/ha (a.s.)
Description: as §1

ECHCG = assay: greenhouse post-emergence herbicidal test; assay type: in vivo, barnyard grass
Description: as §1, with “The rate of application for the post-emergence treatment was 250, 125, 62.5, 31.3 and/or 15.6 g/ha of active substance (a.s.).” left out

CHEAL = assay: greenhouse post-emergence herbicidal test; assay type: in vivo, lambs' quarters (goose-foot)
Description: as §1, with “The rate of application for the post-emergence treatment was 250, 125, 62.5, 31.3 and/or 15.6 g/ha of active substance (a.s.).” left out

POLPE = assay: greenhouse post-emergence herbicidal test; assay type: in vivo, lady's thumb; settings: 31.3 g/ha (a.s.), read-out: herbicidal action against POLPE
Description: as §1

BRAPL = assay: greenhouse post-emergence herbicidal test; assay type: in vivo, marmalade grass; settings: 125 or 250 g/ha (a.s.)
Description: as §1

For `CCCCn1c(=O)oc2ccc(C(=O)C3=C(O)CCCC3=O)c(C)c21` [Compound I-1a.6], the “herbicidal action against AMARE” value (AMARE) was “very good herbicidal action (A damage of at least 95% corresponds to very good herbicidal action)”.

In the case of `C=CCn1c(=O)oc2ccc(C(=O)C3=C(O)CCCC3=O)c(C)c21` [Compound I-1a.29], the “herbicidal action against AMARE” value (AMARE) is reported as “very good herbicidal action (A damage of at least 95% corresponds to very good herbicidal action)”.

In the case of `Cc1c(C(=O)C2=C(O)CCCC2=O)ccc2sc(=O)n(C)c12` [Compound I-1a.1129, 3,4-dimethyl-5-(1′,3′-cyclohexanedion-2′-yl)carbonylbenzothiazol-2-one], the “herbicidal action against MATIN” value (MATIN) is reported as “very good herbicidal action (A damage of at least 95% corresponds to very good herbicidal action)”, the “herbicidal action against LAMAM” value (LAMAM) is reported as “very good herbicidal action (A damage of at least 95% corresponds to very good herbicidal action)” and the “herbicidal action against SINAL” value (SINAL) is reported as “very good herbicidal action (A damage of at least 95% corresponds to very good herbicidal action)”.

In the case of `CCn1c(=O)sc2ccc(C(=O)C3=C(O)CCCC3=O)c(C)c21` [Compound I-1a.1131], the “herbicidal action against ABUTH” value (ABUTH) is reported as “very good herbicidal action (A damage of at least 95% corresponds to very good herbicidal action)”.

For `Cc1c(C(=O)C2=C(O)CC(C)(C)CC2=O)ccc2sc(=O)n(C)c12` [Compound I-1c.1129, 3,4-dimethyl-5-(5′,5′-dimethyl-1′,3′-cyclohexanedion-2′-yl)-carbonylbenzothiazol-2-one], the “herbicidal action against PHBPU” value (PHBPU; 125 or 62.5 g/ha (a.s.)) was “very good herbicidal action (A damage of at least 95% corresponds to very good herbicidal action)”.

For `CCn1c(=O)sc2ccc(C(=O)C3=C(O)CC(C)(C)CC3=O)c(C)c21` [Compound I-1c.1131], the “herbicidal action against SETFA” value (SETFA) was “very good herbicidal action (A damage of at least 95% corresponds to very good herbicidal action)”.

For `Cc1c(C(=O)C2=C(O)C(C)(C)C(=O)C(C)(C)C2=O)ccc2sc(=O)n(C)c12` [Compound I-1d.1129, 3,4-dimethyl-5-(4′,4′,6′,6′-tetramethyl-1′,3′,5′-cyclohexane-trion-2′-yl)-carbonylbenzothiazol-2-one], the “herbicidal action against ECHCG” value (ECHCG; 16.5 g/ha of a.s.) was “good to very good herbicidal action”, the “herbicidal action against ECHCG” value (ECHCG; 31.3 g/ha (a.s.)) was “good to very good herbicidal action” and the “herbicidal action against PHBPU” value (PHBPU; 16.5 g/ha of a.s.) was “very good herbicidal action (A damage of at least 95% corresponds to very good herbicidal action)”. The “herbicidal action against PHBPU” value (PHBPU; 31.3 g/ha (a.s.)) was “very good herbicidal action (A damage of at least 95% corresponds to very good herbicidal action)”, the “herbicidal action against CHEAL” value (CHEAL; 16.5 g/ha of a.s.) was “good to very good herbicidal action” and the pest or weed control at 31.3 g/ha (CHEAL; Chenopodium album, 31.3 g/ha (a.s.), read-out: herbicidal action against CHEAL) was ≥ 95%. The pest or weed control at 31.3 g/ha (POLPE) was ≥ 95%.

In the case of `CCn1c(=O)sc2ccc(C(=O)C3=C(O)C(C)(C)C(=O)C(C)(C)C3=O)c(C)c21` [Compound I-1d.1131], the “herbicidal action against AMARE” value (AMARE) is reported as “very good herbicidal action (A damage of at least 95% corresponds to very good herbicidal action)”, the “herbicidal action against ABUTH” value (ABUTH) is reported as “very good herbicidal action (A damage of at least 95% corresponds to very good herbicidal action)” and the “herbicidal action against SETFA” value (SETFA) is reported as “very good herbicidal action (A damage of at least 95% corresponds to very good herbicidal action)”.

With `CCCCn1c(=O)sc2ccc(C(=O)C3=C(O)C(C)(C)C(=O)C(C)(C)C3=O)c(C)c21` [Compound I-1d.1134] the “herbicidal action against AMARE” value (AMARE) was “very good herbicidal action (A damage of at least 95% corresponds to very good herbicidal action)” and the “herbicidal action against ABUTH” value (ABUTH) was “very good herbicidal action (A damage of at least 95% corresponds to very good herbicidal action)”.

For `CCn1c(=O)sc2ccc(C(=O)C3=C(O)C4CCC(C4)C3=O)c(C)c21` (centres unmarked) [Compound I-1x.1131], the “herbicidal action against BRAPL” value (BRAPL) was “very good herbicidal action (A damage of at least 95% corresponds to very good herbicidal action)” and the “herbicidal action against SETFA” value (SETFA) was “very good herbicidal action (A damage of at least 95% corresponds to very good herbicidal action)”.

With `CCCCn1c(=O)sc2ccc(C(=O)C3=C(O)C4CCC(C4)C3=O)c(C)c21` (centres unmarked) [Compound I-1x.1134] the “herbicidal action against ABUTH” value (ABUTH) was “very good herbicidal action (A damage of at least 95% corresponds to very good herbicidal action)” and the “herbicidal action against SETFA” value (SETFA) was “very good herbicidal action (A damage of at least 95% corresponds to very good herbicidal action)”.

With `Cc1c(C(=O)C2=C(O)C3CCC(C3)C2=O)ccc2sc(=O)n(C)c12` (centres unmarked) [Example 4] the melting point was 101 to 110 °C.

In the case of `C=CCn1c(=O)sc2ccc(C(=O)C3=C(O)CC(C)(C)CC3=O)c(C)c21` [Example 5], the melting point is reported as 143 to 150 °C.

Compound `Cc1c(C(=O)C2=C(O)CCCC2=O)ccc2oc(=O)n(C)c12` [Example 6] has a melting point of 207 to 209 °C.

For `Cc1c(C(=O)C2=C(O)CC(C)(C)CC2=O)ccc2oc(=O)n(C)c12` [Example 7], the melting point was 139 to 143 °C.

With `CCCCn1c(=O)oc2ccc(C(=O)C3=C(O)CC(C)(C)CC3=O)c(C)c21` [Example 10] the melting point was 115 to 116 °C.

`CCn1c(=O)sc2ccc(C(=O)C3=C(n4cccn4)CC(C)(C)CC3=O)c(C)c21` [Example 21] showed a melting point of 150 to 151 °C.

In the case of `CCCn1c(=O)sc2ccc(C(=O)C3=C(O)CC(C)(C)CC3=O)c(C)c21` [Example 25], the melting point is reported as 129 to 135 °C.

In the case of `CCCn1c(=O)oc2ccc(C(=O)C3=C(O)CC(C)(C)CC3=O)c(C)c21` [Example 29], the melting point is reported as 189 to 193 °C.

`Cc1c(C(=O)C2=C(O)CC(C)(C)CC2=O)ccc2sc(=O)n(Cc3ccccc3)c12` [Example 32] showed a melting point of 161 to 166 °C.

Work on `CC#CCn1c(=O)sc2ccc(C(=O)C3=C(O)CC(C)(C)CC3=O)c(C)c21` [Example 33] yielded a melting point of 147 to 149 °C.

`C=CCCn1c(=O)sc2ccc(C(=O)C3=C(O)C4CCC(C4)C3=O)c(C)c21` (centres unmarked) [Example 40] gave a melting point of 129 to 132 °C.
